Assay results reported in article PMC11486130, “Structure-guided discovery of novel dUTPase inhibitors with anti-Nocardia activity by computational design” (Journal of Enzyme Inhibition and Medicinal Chemistry, 2024).

Legend:
NsdUTPase A22V = target: T1, NsdUTPase A22V (Nocardia seriolae, UniProt A0ABF7PKI9, A22V); assay: Kd to A22V mutant of NsdUTPase; assay type: binding, N. seriolae
T1 sequence (A0ABF7PKI9 1-166 A22V): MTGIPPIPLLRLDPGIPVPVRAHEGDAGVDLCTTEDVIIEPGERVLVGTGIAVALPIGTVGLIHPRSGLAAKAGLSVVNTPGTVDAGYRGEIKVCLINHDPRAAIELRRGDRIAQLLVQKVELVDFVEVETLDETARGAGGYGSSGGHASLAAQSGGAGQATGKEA

NsdUTPase K93A = target: T2, NsdUTPase K93A (Nocardia seriolae, UniProt A0ABF7PKI9, K93A); assay: Kd to K93A mutant of NsdUTPase; assay type: binding, N. seriolae
T2 sequence (A0ABF7PKI9 1-166 K93A): T1 sequence (A0ABF7PKI9 1-166 A22V)

| Structure (SMILES) | Kd (NsdUTPase A22V) | Kd (NsdUTPase K93A) |
| --- | --- | --- |
| C=CCn1c(-c2ccc(Oc3ccccc3)cc2)nc2cc(C)ccc21 [12b, 1-Allyl-5-methyl-2-(4-phenoxyphenyl)-1H-benzo[d]imidazole] | 3.16 µM | 40.9 µM |
| C=CCn1c(/C=C/c2ccccc2)nc2cc(C(F)(F)F)ccc21 [4b, (E)-1-Allyl-2-styryl-5-(trifluoromethyl)-1H-benzo[d]imidazole] | 5.34 µM | 50.7 µM |
